According to EP0433759A1, “4-Substituted alkyl carbapenem antibiotics” (Bristol-Myers Squibb Company, priority 1989, dated 1991):
Converted amounts (≈) assume the structure as drawn. Structures can show the parent of a compound that is named as a salt.

What was measured:
[1] = Solubility in water, observation on the lyophilized product; format: physicochemical; settings: lyophilized material
Method: A solution of (4R,5S,6S)-4-(4"-aminobutyl)-6-[(1'R)-1'-hydroxyethyl]-3-[(pyridin-4-yl)methylthio]-7-oxo-1-azabicyclo[3.2.0]hept-2-ene-2-carboxylic acid (0.134 g, 0.34 mmol) in 15 mL of cold water (pH 6.4), was adjusted to pH 8.0 with 1 M NaOH. Then 0.170 g (1.36 mmol) of aminoiminomethanesulfonic acid [K. Kim et al., Tet. Lett., 29, 3183 (1988)] was added in small portions over 5 min while maintaining the pH at 8 with 1 M NaOH. Three more portions of aminoiminomethanesulfonic acid (3 x 0.050 g) were added at 30 min intervals and the resulting mixture (some insoluble material) was stirred for a total of 3 h at 0-5 C. The pH was maintained throughout at 8 with 1 M NaOH. Then 15 mL of 0.2M pH 6.0 phosphate buffer was added and the resulting homogeneous solution was chromatographed on reverse phase silica gel (µBondapak C18, 2.5 x 14 cm). Elution with a gradient of acetonitrile (0-10%) in water gave 0.103 g (69%) of the title compound as a white amorphous powder after freeze drying.

[2] = Chemical stability in aqueous solution (half-life); format: physicochemical; settings: 37°C, 10^-4 M, pH 7.4, aqueous solution; read-out: Half-life (T 1/2) (converted)
Method: These values were determined by the method of Woodward et al, J. Am. Chem. Soc., 102, 2042 (1980)

[3] = test system: Escherichia coli, A15119; assay: In vitro antibacterial activity (MIC), serial 2-fold dilution; format: cell-based; settings: Escherichia coli A15119; Mueller-Hinton; 37°C, 17 h; read-out: Antibacterial Activity MIC E. coli
Method: (§1) In vitro antibacterial activity was determined by serial 2-fold dilution of the compound in Mueller-Hinton agar and inoculation of the agar surface or broth with an appropriately diluted 18-24 h broth culture.

[4] = test system: Streptococcus pneumoniae, A9585; assay: as above; format: cell-based; settings: Streptococcus pneumoniae A9585; Mueller-Hinton; 37°C, 17 h; read-out: Antibacterial Activity MIC S. pn.
Method: as §1

[5] = test system: Pseudomonas aeruginosa, A9843; assay: as above; format: cell-based; settings: Pseudomonas aeruginosa A9843; Mueller-Hinton; 37°C, 17 h; read-out: Antibacterial Activity MIC P. aer.
Method: as §1

Solubility in water [1]	half-life at 100 µM [2] [h]	MIC [3] [µg/mL]	MIC [4] [µg/mL]	MIC [5] [µg/mL]	Structure (SMILES)
only slightly soluble in water					C[C@@H](O)[C@H]1C(=O)N2C(C(=O)O)=C(SCc3ccncc3)[C@H](CCCCNC(=N)N)[C@H]12 [Example 78, (4R,5S,6S)-4-(4"-Guanidinobutyl]-6-[(1'R)-1'-hydroxyethyl]-3-[(pyridin-4-yl)methylthio]-7-oxo-1-azabicyclo-[3.2.0]hept-2-ene-2-carboxylic acid]
	47	0.008 (≈ 0.0196 µM)	0.016 (≈ 0.0392 µM)	2 (≈ 4.9 µM)	C[C@@H](O)[C@H]1C(=O)N2C(C(=O)O)=C(SCCC#N)[C@H](CCN3CCN(C)CC3)[C@H]12 [Example 126, (4R,5S,6S)-3-[(2-Cyanoethyl)thio]-6-[(1'R)-1'-hydroxyethyl]-4-[2"(4-methylpiperazine-1-yl)ethyl]-7-oxo-1-azabicyclo[3.2.0]hept-2-ene-2-carboxylic acid]
	31	0.13	0.06	1	C[C@@H](O)[C@H]1C(=O)N2C(C(=O)O)=C(SCCN3CCCC3)[C@H](CCCNC(=N)N)[C@H]12 [Example 127, (4R,5S,6S)-4-(3"-Guanidinopropyl)-6-[(1'R)-1'-hydroxyethyl]3-([2-(1-pyrrolidinyl)ethyllthio)-7-oxo-1-azabicyclo[3.2.0]-hept-2-ene-2-carboxylic acid, acetic acid salt]
	16	0.13	0.13	0.06	C[C@@H](O)[C@H]1C(=O)N2C(C(=O)O)=C(SCC(=N)N(C)C)[C@H](CCCN)[C@H]12 [Example 130, (4R,5S,6S)-4-(3"-Aminopropyl)-3-[(N,N-dimethylamidinomethyl]thio]-6-[(1'R)-1'-hyroxyethyl]-7-oxo-1-azabicyclo[3.2.0]hept-2-ene-2-carboxylic acid, acetic acid salt]
	46	0.13 (≈ 0.337 µM)	0.25 (≈ 0.648 µM)	2 (≈ 5.19 µM)	C[C@@H](O)[C@H]1C(=O)N2C(C(=O)O)=C(SCCC#N)[C@H](CCSCCN)[C@H]12 [Example 131, (4R,5S,6S)-4-(2"-(2-Aminoethylthio)ethyl]-3-[(2-cyanoethylthio]-6-[(1'R)-1'-hydroxyethy)]-7-oxo-1-azabicyclo-[3.2.0]-hept-2-ene-2-carboxylic acid]
	37	0.015	0.03	0.06	C[C@@H](O)[C@H]1C(=O)N2C(C(=O)O)=C(SCCNC(=N)N)[C@H](CCNC(=N)N)[C@H]12 [Example 135, (4R,5S,6S)-4-(2"-Guanidinoethyl)-3-[(2-guanidinoethyl)-thio]-6-[(1'R)-1'-hydroxyethyl]-7-oxo-1-azabicyclo-[3.2.0]hept-2-ene-2-carboxylic acid, acetic acid salt]
	17	0.007 (≈ 0.0181 µM)	0.015 (≈ 0.0387 µM)	4 (≈ 10.3 µM)	C[C@@H](O)[C@H]1C(=O)N2C(C(=O)[O-])=C(SCCC#N)[C@H](CC[n+]3ccccc3)[C@H]12 [Example 136, (4R,5S,6S)-3-[(2-Cyanoethyl)thio]-6-[(1'R)-1'-hydroxyethyl]-4-[2"-(1-pyridinium)ethyl]7-oxo-1-azabicyclo-[3.2.0]hept-2-ene-2-carboxylate]
	79	0.25 (≈ 0.707 µM)	0.5 (≈ 1.41 µM)	1 (≈ 2.83 µM)	CNCCC[C@H]1C(SCCC#N)=C(C(=O)O)N2C(=O)[C@H]([C@@H](C)O)[C@@H]12 [Example 154, (4R,5S,6S)-3-[(2-Cyanoethyl]thio]-6-[(1'R]-1'-hydroxyethyl]-4-(3"-N-methylaminopropyl)-7-oxo-1-azabicyclo[3.2.0]hept-2-ene-2-carboxylic acid]
